Calls of active or inactive are those of the source. No cut-off for these calls is given here.
Experiments:
Rattus norvegicus [1] = experiment: Antidyslipidemic activity in fasted Sprague-Dawley rat assessed as reduction in triglyceride level in plasma at 1 mg/kg, po after 1 hr relative to vehicle-treated control; type: functional; set-up: scale not given: the % may be the effect or the level left
[2] = target: Hydroxycarboxylic acid receptor 2 (Rattus norvegicus, UniProt Q80Z39); experiment: Agonist activity at rat GPR109a; type: functional
Sequence of Hydroxycarboxylic acid receptor 2 (Rattus norvegicus, UniProt Q80Z39) (Q80Z39 whole entry): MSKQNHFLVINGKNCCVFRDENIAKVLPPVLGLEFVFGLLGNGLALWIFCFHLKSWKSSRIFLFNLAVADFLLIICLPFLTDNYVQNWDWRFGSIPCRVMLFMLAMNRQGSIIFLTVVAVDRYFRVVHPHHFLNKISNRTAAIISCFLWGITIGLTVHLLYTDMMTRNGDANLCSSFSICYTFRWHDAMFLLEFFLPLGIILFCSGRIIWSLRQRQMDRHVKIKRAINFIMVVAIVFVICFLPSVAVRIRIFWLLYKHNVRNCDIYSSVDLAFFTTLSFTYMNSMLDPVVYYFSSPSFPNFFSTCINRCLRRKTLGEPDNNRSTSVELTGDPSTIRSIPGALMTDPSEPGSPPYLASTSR

[3] = target: Hydroxycarboxylic acid receptor 3 (Homo sapiens, UniProt P49019); experiment: Agonist activity at human GPR109b; type: functional
Sequence of Hydroxycarboxylic acid receptor 3 (P49019 whole entry): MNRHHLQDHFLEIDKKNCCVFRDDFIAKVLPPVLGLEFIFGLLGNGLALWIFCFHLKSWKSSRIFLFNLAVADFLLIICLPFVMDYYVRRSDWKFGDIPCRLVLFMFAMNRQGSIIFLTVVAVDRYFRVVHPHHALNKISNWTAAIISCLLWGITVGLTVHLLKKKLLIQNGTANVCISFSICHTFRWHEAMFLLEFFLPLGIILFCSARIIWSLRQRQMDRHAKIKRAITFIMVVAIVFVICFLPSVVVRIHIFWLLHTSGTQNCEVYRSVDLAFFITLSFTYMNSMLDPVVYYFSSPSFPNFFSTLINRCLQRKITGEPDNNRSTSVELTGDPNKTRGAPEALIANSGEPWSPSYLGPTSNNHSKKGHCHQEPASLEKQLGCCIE

Canis familiaris [4] = experiment: Antidyslipidemic activity in fasted beagle dog assessed as reduction in free fatty acid level in plasma at 3 mg/kg, po after 1 hr relative to vehicle-treated control; type: functional, Canis lupus familiaris; set-up: scale not given: the % may be the effect or the level left
Canis familiaris [5] = experiment: Toxicity in beagle dog assessed as flushing at 3 mg/kg, po; type: organism-based, Canis lupus familiaris; set-up: dose 3 mg/kg, route oral; conditions: in vivo
[6] = target: Hydroxycarboxylic acid receptor 2 (Mus musculus, UniProt Q9EP66); experiment: Agonist activity at mouse GPR109a; type: functional
Sequence of Hydroxycarboxylic acid receptor 2 (Mus musculus, UniProt Q9EP66) (Q9EP66 whole entry): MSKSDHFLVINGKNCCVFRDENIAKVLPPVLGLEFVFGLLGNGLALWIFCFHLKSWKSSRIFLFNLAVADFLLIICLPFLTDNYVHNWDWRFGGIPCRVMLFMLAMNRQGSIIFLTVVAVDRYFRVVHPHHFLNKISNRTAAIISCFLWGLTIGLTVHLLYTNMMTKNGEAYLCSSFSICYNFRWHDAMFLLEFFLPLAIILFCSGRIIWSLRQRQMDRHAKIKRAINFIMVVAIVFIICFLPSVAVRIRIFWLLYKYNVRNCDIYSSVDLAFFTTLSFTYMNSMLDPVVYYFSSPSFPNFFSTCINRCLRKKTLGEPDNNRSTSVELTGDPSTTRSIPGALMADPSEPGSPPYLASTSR

Canis familiaris [7] = experiment: Antidyslipidemic activity in po dosed fasted beagle dog assessed as reduction in free fatty acid level in plasma after 4 hr relative to vehicle-treated control; type: functional, organism-based; conditions: Canis lupus familiaris
Rattus norvegicus [8] = experiment: Antidyslipidemic activity in fasted Sprague-Dawley rat assessed as reduction in free fatty acid level in plasma at 1 mg/kg, po after 1 hr relative to vehicle-treated control; type: functional; set-up: scale not given: the % may be the effect or the level left
[9] = Oral bioavailability in beagle dog at 1 mg/kg; type: ADME, organism-based, Canis lupus familiaris; conditions: in vivo
Canis familiaris [10] = experiment: Toxicity in fasted beagle dog assessed as increase in cutaneous blood flow at 30 mg/kg, po relative to control; type: organism-based, Canis lupus familiaris; set-up: dose 30 mg/kg, route oral; conditions: in vivo
Rattus norvegicus [11] = experiment: Antidyslipidemic activity in po dosed fasted Sprague-Dawley rat assessed as reduction in triglyceride level in plasma; type: functional
Rattus norvegicus [12] = experiment: Antidyslipidemic activity in fasted Sprague-Dawley rat assessed as reduction in free fatty acid level in plasma at 3 mg/kg, po after 2 hrs; type: functional, organism-based; set-up: dose 3 mg/kg
Canis familiaris [13] = experiment: Toxicity in fasted beagle dog assessed as change in skin colour at 1 to 10 mg/kg, po; type: organism-based, Canis lupus familiaris; set-up: dose 1-10 mg/kg, route oral; conditions: in vivo
Liver microsomes [14] = experiment: Intrinsic clearance in rat liver microsomes assessed per 10^6 cells; type: ADME, Microsome
Rattus norvegicus [15] = experiment: Antidyslipidemic activity in fasted Sprague-Dawley rat assessed as reduction in free fatty acid level in plasma at 3 mg/kg, po up to 2 hrs; type: functional, organism-based; set-up: dose 3 mg/kg
Cytochrome P450 2C9 = Cytochrome P450 2C9 (Homo sapiens, UniProt P11712); experiment: Inhibition of human CYP2C9; type: ADME
Sequence of Cytochrome P450 2C9 (P11712 whole entry): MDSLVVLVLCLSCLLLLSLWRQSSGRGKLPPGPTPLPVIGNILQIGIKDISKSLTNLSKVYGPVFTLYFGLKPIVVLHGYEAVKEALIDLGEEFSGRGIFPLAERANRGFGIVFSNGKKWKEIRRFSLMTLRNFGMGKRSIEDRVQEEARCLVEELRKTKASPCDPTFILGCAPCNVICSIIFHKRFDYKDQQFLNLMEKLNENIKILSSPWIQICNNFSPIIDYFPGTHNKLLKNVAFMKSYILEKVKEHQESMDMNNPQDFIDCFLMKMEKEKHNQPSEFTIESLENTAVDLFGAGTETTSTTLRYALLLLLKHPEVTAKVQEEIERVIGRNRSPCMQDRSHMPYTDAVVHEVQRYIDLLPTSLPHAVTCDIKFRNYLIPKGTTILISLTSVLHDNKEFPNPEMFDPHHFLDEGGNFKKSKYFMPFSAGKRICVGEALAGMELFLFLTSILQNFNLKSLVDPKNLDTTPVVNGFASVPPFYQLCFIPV

[16] = Agonist activity at dog GPR109a; type: functional, Canis lupus familiaris
Cytochrome P450 1A2 = target: T1, Cytochrome P450 1A2 (Homo sapiens, UniProt P05177); experiment: Inhibition of human CYP1A2; type: ADME
T1 sequence (P05177 whole entry): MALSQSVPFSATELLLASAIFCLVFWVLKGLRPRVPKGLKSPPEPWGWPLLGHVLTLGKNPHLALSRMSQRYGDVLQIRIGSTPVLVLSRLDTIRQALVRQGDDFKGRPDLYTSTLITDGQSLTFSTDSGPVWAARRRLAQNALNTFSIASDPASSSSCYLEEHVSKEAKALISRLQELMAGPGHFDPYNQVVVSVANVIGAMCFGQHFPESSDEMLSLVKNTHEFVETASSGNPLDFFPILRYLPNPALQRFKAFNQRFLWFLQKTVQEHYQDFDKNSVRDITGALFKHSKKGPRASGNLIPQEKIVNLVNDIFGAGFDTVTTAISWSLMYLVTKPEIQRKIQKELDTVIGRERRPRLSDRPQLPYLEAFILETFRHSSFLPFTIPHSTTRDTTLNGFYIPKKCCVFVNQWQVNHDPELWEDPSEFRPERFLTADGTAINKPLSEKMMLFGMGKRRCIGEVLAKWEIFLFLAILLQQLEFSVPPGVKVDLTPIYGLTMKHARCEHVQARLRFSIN

[17] = AUC (0 to 24 hrs) in beagle dog at 1 mg/kg, po; type: ADME, organism-based, Canis lupus familiaris; set-up: time < 24 hr, dose 1 mg/kg, route oral; conditions: plasma
Cytochrome P450 2D6 = Cytochrome P450 2D6 (Homo sapiens, UniProt P10635); experiment: Inhibition of human CYP2D6; type: ADME
Sequence of Cytochrome P450 2D6 (P10635 whole entry): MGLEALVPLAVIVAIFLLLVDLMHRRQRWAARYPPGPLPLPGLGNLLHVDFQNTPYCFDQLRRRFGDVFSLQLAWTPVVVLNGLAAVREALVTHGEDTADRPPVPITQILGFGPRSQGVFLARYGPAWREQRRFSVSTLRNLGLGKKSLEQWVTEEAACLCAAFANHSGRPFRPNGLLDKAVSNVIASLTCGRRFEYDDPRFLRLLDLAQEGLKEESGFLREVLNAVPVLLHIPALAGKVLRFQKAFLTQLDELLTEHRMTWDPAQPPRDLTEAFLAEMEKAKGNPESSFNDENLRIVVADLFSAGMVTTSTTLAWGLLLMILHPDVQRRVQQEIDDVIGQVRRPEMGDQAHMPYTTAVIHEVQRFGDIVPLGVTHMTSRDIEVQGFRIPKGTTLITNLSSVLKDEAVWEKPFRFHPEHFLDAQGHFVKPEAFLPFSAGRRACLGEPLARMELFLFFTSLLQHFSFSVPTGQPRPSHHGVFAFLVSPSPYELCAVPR

Cytochrome P450 3A4 = Cytochrome P450 3A4 (Homo sapiens, UniProt P08684); experiment: Inhibition of human CYP3A4; type: ADME
Sequence of Cytochrome P450 3A4 (P08684 whole entry): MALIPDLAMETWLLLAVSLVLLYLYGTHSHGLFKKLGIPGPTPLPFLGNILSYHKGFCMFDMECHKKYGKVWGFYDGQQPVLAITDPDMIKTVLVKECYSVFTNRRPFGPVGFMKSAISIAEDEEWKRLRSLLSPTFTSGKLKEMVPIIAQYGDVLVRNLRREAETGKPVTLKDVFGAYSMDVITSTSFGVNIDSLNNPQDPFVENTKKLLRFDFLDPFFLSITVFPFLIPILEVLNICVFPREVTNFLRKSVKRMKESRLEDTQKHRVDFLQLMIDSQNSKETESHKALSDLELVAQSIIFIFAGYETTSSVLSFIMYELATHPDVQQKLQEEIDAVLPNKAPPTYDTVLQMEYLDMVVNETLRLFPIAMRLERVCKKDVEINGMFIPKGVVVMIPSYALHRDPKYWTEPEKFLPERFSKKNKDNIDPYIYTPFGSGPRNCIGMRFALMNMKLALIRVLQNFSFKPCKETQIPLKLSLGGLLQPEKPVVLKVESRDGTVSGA

Liver [18] = experiment: Intrinsic clearance in mouse liver microsomes assessed per 10^6 cells; type: ADME, Microsome
[19] = AUC (0 to 24 hrs) in Sprague-Dawley rat at 5 mg/kg, po; type: ADME, organism-based; set-up: time < 24 hr, dose 5 mg/kg, route oral; conditions: plasma
Canis familiaris [20] = experiment: Antidyslipidemic activity in fasted beagle dog assessed as reduction in free fatty acid level in plasma at 1 mg/kg, po after 1 hr relative to vehicle-treated control; type: functional, Canis lupus familiaris; set-up: scale not given: the % may be the effect or the level left
Canis familiaris [21] = experiment: Toxicity in fasted beagle dog assessed as behavioural changes at 30 mg/kg, po relative to control; type: organism-based, Canis lupus familiaris; set-up: dose 30 mg/kg, route oral; conditions: in vivo
Canis familiaris [22] = experiment: Toxicity in fasted beagle dog assessed as behavioural changes at 1 to 10 mg/kg, po; type: organism-based, Canis lupus familiaris; set-up: dose 1-10 mg/kg, route oral; conditions: in vivo
Canis familiaris [23] = experiment: Toxicity in fasted beagle dog assessed as flushing at 1 to 10 mg/kg, po; type: organism-based, Canis lupus familiaris; set-up: dose 1-10 mg/kg, route oral; conditions: in vivo
Rattus norvegicus [24] = experiment: Antidyslipidemic activity in po dosed fasted Sprague-Dawley rat assessed as reduction in free fatty acid level in plasma; type: functional; conditions: for minimal effective dose: read-out: MED
Liver microsomes [25] = experiment: Intrinsic clearance in human liver microsomes assessed per 10^6 cells; type: ADME, Microsome
[26] = target: Voltage-gated inwardly rectifying potassium channel KCNH2 (Homo sapiens, UniProt Q12809); experiment: Inhibition of human ERG up to 10 uM by patch clamp assay
Sequence of Voltage-gated inwardly rectifying potassium channel KCNH2 (Q12809 whole entry): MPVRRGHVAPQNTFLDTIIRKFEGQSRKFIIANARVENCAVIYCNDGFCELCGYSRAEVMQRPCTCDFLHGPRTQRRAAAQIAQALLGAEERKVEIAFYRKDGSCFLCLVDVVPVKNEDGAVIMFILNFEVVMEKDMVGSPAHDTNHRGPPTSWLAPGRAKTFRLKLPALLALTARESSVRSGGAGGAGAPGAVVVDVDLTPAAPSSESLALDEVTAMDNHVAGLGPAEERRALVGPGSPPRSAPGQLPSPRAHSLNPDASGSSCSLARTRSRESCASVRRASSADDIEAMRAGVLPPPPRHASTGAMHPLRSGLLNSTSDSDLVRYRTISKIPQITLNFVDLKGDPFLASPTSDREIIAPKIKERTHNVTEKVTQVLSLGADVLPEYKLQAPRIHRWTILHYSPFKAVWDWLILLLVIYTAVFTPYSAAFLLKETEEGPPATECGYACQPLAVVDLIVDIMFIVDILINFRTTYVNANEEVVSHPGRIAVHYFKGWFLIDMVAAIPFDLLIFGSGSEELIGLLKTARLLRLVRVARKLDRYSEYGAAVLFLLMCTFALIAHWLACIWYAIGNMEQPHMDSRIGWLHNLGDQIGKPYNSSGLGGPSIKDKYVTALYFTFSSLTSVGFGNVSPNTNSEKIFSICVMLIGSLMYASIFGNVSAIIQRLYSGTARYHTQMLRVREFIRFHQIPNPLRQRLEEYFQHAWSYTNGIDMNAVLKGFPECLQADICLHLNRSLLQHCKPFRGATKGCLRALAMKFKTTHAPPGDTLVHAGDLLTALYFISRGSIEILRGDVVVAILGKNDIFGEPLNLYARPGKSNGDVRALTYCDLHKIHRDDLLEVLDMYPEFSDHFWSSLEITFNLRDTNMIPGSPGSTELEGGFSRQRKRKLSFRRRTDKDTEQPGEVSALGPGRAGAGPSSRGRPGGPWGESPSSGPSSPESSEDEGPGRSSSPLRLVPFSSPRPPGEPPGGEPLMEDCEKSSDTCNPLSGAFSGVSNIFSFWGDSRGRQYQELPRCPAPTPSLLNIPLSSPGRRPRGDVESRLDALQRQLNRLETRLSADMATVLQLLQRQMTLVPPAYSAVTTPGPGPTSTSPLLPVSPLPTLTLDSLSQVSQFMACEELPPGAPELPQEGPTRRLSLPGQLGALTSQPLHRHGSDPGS

Liver [27] = experiment: Intrinsic clearance in dog liver microsomes assessed per 10^6 cells; type: ADME, Canis lupus familiaris, Microsome
Mus musculus [28] = experiment: Nephrotoxicity in CD1 mouse at 100 mg/kg, po administered qd for 5 days measured 2 hrs post-last dose; type: toxicity, organism-based; set-up: dose 100 mg/kg, route oral; conditions: in vivo
[29] = Oral bioavailability in Sprague-Dawley rat at 5 mg/kg; type: ADME, organism-based; conditions: in vivo
Rattus norvegicus [30] = species on record: Rattus norvegicus; experiment: Nephrotoxicity in rat assessed as increase in serum blood urea nitrogen level; type: toxicity, organism-based; conditions: in vivo
Canis familiaris [31] = experiment: Antidyslipidemic activity in fasted beagle dog assessed as reduction in free fatty acid level in plasma at 2 mg/kg, po after 1 hr relative to vehicle-treated control; type: functional, Canis lupus familiaris; set-up: scale not given: the % may be the effect or the level left
Mus musculus [32] = experiment: Nephrotoxicity in CD1 mouse assessed as increase in serum blood urea nitrogen level at 100 mg/kg; type: toxicity, organism-based; set-up: dose 100 mg/kg; conditions: in vivo
Mus musculus [33] = experiment: Nephrotoxicity in CD1 mouse assessed as increase in creatinine level at 100 mg/kg; type: toxicity, organism-based; set-up: dose 100 mg/kg; conditions: in vivo
Rattus norvegicus [34] = species on record: Rattus norvegicus; experiment: Nephrotoxicity in rat assessed as increase in creatinine level; type: toxicity, organism-based; conditions: in vivo
Canis familiaris [35] = experiment: Antidyslipidemic activity in fasted beagle dog assessed as reduction in free fatty acid level in plasma at 0.3 mg/kg, po after 1 hr relative to vehicle-treated control; type: functional, Canis lupus familiaris; set-up: scale not given: the % may be the effect or the level left
Canis familiaris [36] = experiment: Antidyslipidemic activity in po dosed fasted beagle dog assessed as reduction in free fatty acid level in plasma relative to vehicle-treated control; type: functional, organism-based; conditions: Canis lupus familiaris
Mus musculus [37] = species on record: Mus musculus; experiment: Nephrotoxicity in CD1 mouse assessed as acute renal necrosis; type: toxicity, organism-based; conditions: in vivo
Rattus norvegicus [38] = experiment: Antidyslipidemic activity in fasted Sprague-Dawley rat assessed as reduction in free fatty acid level in plasma at 3 mg/kg, po after 1 hr relative to vehicle-treated control; type: functional; set-up: scale not given: the % may be the effect or the level left
Rattus norvegicus [39] = experiment: Antidyslipidemic activity in fasted Sprague-Dawley rat assessed as reduction in triglyceride level in plasma at 3 mg/kg, po after 1 hr relative to vehicle-treated control; type: functional; set-up: scale not given: the % may be the effect or the level left

O=c1[nH]c(=O)c2c(CCCC(F)F)cc(=O)oc2[nH]1
Activity (Rattus norvegicus [1]): 59% | EC50 [2]: 2 nM | EC50 [3]: 59 nM | Activity (Canis familiaris [4]): 80% | Activity (Canis familiaris [5]): Toxic | EC50 [6]: 5 nM | Activity (Canis familiaris [7]): inactive

CC1(CCCc2cc(=O)oc3[nH]c(=O)[nH]c(=O)c23)CC1 [SCH-900271]
Activity (Rattus norvegicus [8]): 53% | Activity (Rattus norvegicus [1]): 53% | bioavailability [9]: 40% | fold change (FC) (Canis familiaris [10]): 5 | Activity (Rattus norvegicus [11]): Dose-dependent effect | ED50 (Rattus norvegicus [11]): 0.5 mg/kg | minimal effective dose (Rattus norvegicus [11]; read-out: MED): 3 mg/kg | EC50 [2]: 8 nM | Activity (Rattus norvegicus [12]): inactive | EC50 [3]: 96 nM | Activity (Canis familiaris [13]): Non-toxic | CLH (Liver microsomes [14]): 10 µL/min | Activity (Rattus norvegicus [15]): Active | IC50 (Cytochrome P450 2C9): > 50000 nM | EC50 [16]: 5 nM | IC50 (Cytochrome P450 1A2): > 50000 nM | AUC(0-t) at 24 h [17]: 7.2 µM·h | IC50 (Cytochrome P450 2D6): > 50000 nM | IC50 (Cytochrome P450 3A4): > 50000 nM | CLH (Liver [18]): 8.7 µL/min | AUC(0-t) at 24 h [19]: 7.6 µM·h | Activity (Canis familiaris [20]): 50% | Activity (Canis familiaris [21]): Non-toxic | EC50 [6]: 6 nM | Activity (Canis familiaris [22]): Non-toxic | Activity (Canis familiaris [23]): Non-toxic | Activity (Rattus norvegicus [24]): Dose-dependent effect | ED50 (Rattus norvegicus [24]): 0.5 mg/kg | minimal effective dose (Rattus norvegicus [24]): 3 mg/kg | CLH (Liver microsomes [25]): 1.6 µL/min | inhibition (INH) [26]: Not Active | CLH (Liver [27]): < 1 µL/min | Activity (Mus musculus [28]): Non-toxic | bioavailability [29]: 76%

O=C(O)c1cccnc1 [NIACIN]
EC50 [3]: > 10000 nM | Activity (Canis familiaris [4]): 38% | EC50 [16]: 31 nM | minimal effective dose (Rattus norvegicus [24]): 10 mg/kg

O=c1[nH]c(=O)c2c(CCCC3CC3)cc(=O)oc2[nH]1
Activity (Rattus norvegicus [8]): 58% | Activity (Rattus norvegicus [1]): 49% | EC50 [2]: 2 nM | Activity (Rattus norvegicus [30]): Non-toxic | EC50 [3]: 140 nM | Activity (Canis familiaris [31]): 80% | EC50 [16]: 1 nM | Activity (Mus musculus [32]): Toxic | Activity (Mus musculus [33]): Toxic | Activity (Rattus norvegicus [34]): Non-toxic

CCCCc1cc(=O)oc2[nH]c(=O)[nH]c(=O)c12
Activity (Rattus norvegicus [8]): 29% | Activity (Rattus norvegicus [1]): 40% | EC50 [2]: 8 nM | Activity (Rattus norvegicus [30]): Non-toxic | EC50 [3]: 190 nM | Activity (Canis familiaris [35]): 90% | EC50 [16]: 16 nM | Activity (Mus musculus [32]): Toxic | Activity (Mus musculus [33]): Toxic | Activity (Rattus norvegicus [34]): Non-toxic | EC50 [6]: 12 nM | Activity (Canis familiaris [36]): Dose-dependent effect | Activity (Mus musculus [37]): Toxic

O=c1[nH]c(=O)c2c(CCC3CCC3)cc(=O)oc2[nH]1
Activity (Rattus norvegicus [8]): 50% | Activity (Rattus norvegicus [1]): 31% | EC50 [2]: 5 nM | Activity (Rattus norvegicus [30]): Non-toxic | EC50 [3]: 67 nM | Activity (Mus musculus [32]): Toxic | Activity (Mus musculus [33]): Toxic | Activity (Rattus norvegicus [34]): Non-toxic | EC50 [6]: 4 nM

CC(C)CCc1cc(=O)oc2[nH]c(=O)[nH]c(=O)c12
EC50 [3]: 1300 nM | Activity (Rattus norvegicus [38]): 15% | Activity (Rattus norvegicus [39]): 16%
